The source of these data is article PMC4741274 (Neurochemical research, 2015).

Molecules are shown by their SMILES. Several values for one entry are separate records, joined by “and”; a condition that tells them apart may be missing. Equal entries are not always repeated. Entries after “also recorded” stand apart in the source; their conditions may differ. Where two headings read alike, the source gives them in different places.

The test system of assay [1] is IMR-32 cells (ganglionic-like α3β4 nAChRs). To be noted: 86Rb+ efflux, ref [22]; cited from earlier work.
The target of assay [2] is T1, α4β2 nAChR (Rattus norvegicus, UniProt P09483+P12390). Type of assay: binding. To be noted: for Ki: read-out: Ki α4β2, vs 500pM [3H]EB, HEK cells, Mean ± SEM of three.
In another assay the target is α2β2 nAChR (Rattus norvegicus, UniProt P12389+P12390). Briefly: Competition binding vs 500 pM [3H]EB, stably transfected HEK cells.
Assay [3] has as its system α4β2* nAChRs from rat forebrain tissue (FB). In words: biochemical. Format: binding. To be noted: Ki α3β4 transfected cells vs rat forebrain (FB) α4β2.
Assay [4] addresses T2, α7 nAChR (Rattus norvegicus, UniProt Q05941). Briefly: Competition binding vs 500 pM [3H]EB, stably transfected HEK cells.
The target of the next assay is α3β2 nAChR (Rattus norvegicus, UniProt P04757+P12390). The description is as above.
In a further assay the target is nAChRs (Rattus norvegicus, UniProt P09483+P12390). Type of assay: binding. The following applies: read-out: Ki AVG.
The target of a further assay is α4β4 nAChR (Rattus norvegicus, UniProt P09483+P12392). Briefly: Competition binding vs 500 pM [3H]EB, stably transfected HEK cells.
The target of assay [5] is T3, α2β4 nAChR (Rattus norvegicus, UniProt P12389+P12392). The assay is described as above.
For assay [6], the system named is Human α4β2 nAChRs expressed in K177 cells. The following applies: 86Rb+ efflux, ref [22]; cited from earlier work.
In assay [7] the target is T4, α3β4 nAChR (Rattus norvegicus, UniProt P04757+P12392). Briefly: Competition binding vs 500 pM [3H]EB, stably transfected HEK cells. The following applies: for Selectivity ratio α3β4/α7: ratio of Ki in stably transfected cells.
A further assay concerns the target rat α3β4 nAChRs (Rattus norvegicus, UniProt P04757+P12392). In words: cell-based. Format: cell-based. The following applies: for Agonist activity (in words): α3β4 nAChRs, 86Rb+ efflux.
Assay [8] deals with T3, α2β4 nAChR. To be noted: read-out: Ki α2β4; added for comparison; ref [24]; cited from earlier work.
In assay [9] the test system is α4β2* nAChRs from rat forebrain tissue (FB). The following applies: cited from earlier work.
Assay [10] addresses T4, α3β4 nAChR. The following applies: cited from earlier work.
Assay [11] deals with T1, α4β2 nAChR. To be noted: added only for comparison; ref [24]; cited from earlier work.
For assay [12], the target named is T2, α7 nAChR. To be noted: read-out: Ki α7; added for comparison; ref [24]; cited from earlier work.
The target of assay [13] is α4β2* nAChRs from rat forebrain tissue (FB) (Rattus norvegicus, UniProt P09483+P12390). In words: biochemical. Type of assay: binding.
[14] abbreviates: ratio of Ki in stably transfected cells.
Setting [15] is: read-out: Ki α2β2, vs 500pM [3H]EB, HEK cells, Mean ± SEM of three.
The mark [16] stands for this setting: read-out: Ki α7, vs 500pM [3H]EB, HEK cells, Mean ± SEM of three.
[17] abbreviates: read-out: Ki α3β2, vs 500pM [3H]EB, HEK cells, Mean ± SEM of three.
Where [18] appears, read: read-out: Ki α4β4, vs 500pM [3H]EB, HEK cells, Mean ± SEM of three.
The mark [19] stands for this setting: read-out: Ki α2β4, vs 500pM [3H]EB, HEK cells, Mean ± SEM of three.
The mark [20] stands for this setting: read-out: Ki α3β4, vs 500pM [3H]EB, HEK cells, Mean ± SEM of three.

With `c1cncc(OC[C@@H]2CCCN2)c1` [H-11MNH], the “Agonist/antagonist function (in words)” value in [1] and in [6] was “full agonists” each time. Moreover, the “Selectivity ratio α3β4/α4β2” value at α4β2 nAChR [2] (setting [14]) is listed as 538.5. The Ki (in general, a dissociation constant, usually derived from enzyme kinetics or from competition with a known ligand) at α4β2 nAChR [2] was determined as 0.39 ± 0.05 nM; on α2β2 nAChR (setting [15]), 0.35 ± 0.09 nM; at α7 nAChR [4] (setting [16]) it was 65 ± 5 nM; at α3β2 nAChR (setting [17]), 1.3 ± 0.3 nM; on nAChRs, 0.46 nM; on α4β4 nAChR (setting [18]) it was 31 ± 6 nM. In addition, the values for the Ki at α2β4 nAChR [5] (setting [19]) and at α3β4 nAChR [7] (setting [20]) were 76 ± 12 nM and 210 ± 40 nM, respectively. The “Selectivity ratio α3β4/α4β2*FB” value in assay [3] was 295.8; in assay [3] (listed as H-11NMH), ~ 300. The results for the EC50 (in [6]; on rat α3β4 nAChRs) were 4000 nM and 24000 ± 1000 nM, respectively. In addition, the “Selectivity ratio α3β4/α7” value at α3β4 nAChR [7] turned out to be 3.23. Further, the “Relative Emax” value at rat α3β4 nAChRs is 83.33% and 83.3 ± 3%. Moreover, at rat α3β4 nAChRs, the “Agonist activity (in words)” value is recorded as “full agonist with high potency; also recorded: full agonist with high efficacy”.
With `c1cncc(OC[C@@H]2CCN2)c1` [A-85380, 3-(2(S)-azetidinylmethoxy) pyridine], the Ki at α2β4 nAChR [8] is 18 ± 4 nM. For the same compound, in [9], the “Selectivity ratio α3β4/α4β2*FB” value was 312. Also, the “Selectivity ratio α3β4/α7” value on α3β4 nAChR [10] is 0.18. Further, at α4β2 nAChR [11], the “Selectivity ratio α3β4/α4β2” value is reported as 557.14 and the “Selectivity ratio α7/α4β2” value was 3,000. On α7 nAChR [12], the Ki is 420 ± 50 nM.
On to `c1ccc(OCC2CCCN2)nc1` (centres unmarked) [H-11ONH], for which the Ki was more than 10000 nM at α4β2 nAChR [2]; more than 10000 nM at α2β2 nAChR (setting [15]); more than 10000 nM at α7 nAChR [4] (setting [16]); more than 10000 nM at α3β2 nAChR (setting [17]); 21800 nM at nAChRs; more than 10000 nM on α4β4 nAChR (setting [18]). Also, the Ki on α2β4 nAChR [5] (setting [19]) and at α3β4 nAChR [7] (setting [20]) was more than 10000 nM in each case.
For the compound `c1cc(OC[C@@H]2CCCN2)ccn1` [H-11PNH], the Ki is more than 10000 nM on α4β2 nAChR [2]; more than 10000 nM at α2β2 nAChR (setting [15]); more than 10000 nM on α7 nAChR [4] (setting [16]); more than 10000 nM at α3β2 nAChR (setting [17]); 59200 nM at nAChRs; more than 10000 nM at α4β4 nAChR (setting [18]). Also, the inhibition constant (Ki) at α2β4 nAChR [5] (setting [19]) and on α3β4 nAChR [7] (setting [20]) was more than 10000 nM in each case.
Turning to `CN1CCC[C@H]1COc1cccnc1` [A-84543, 3-(1-methyl-2(S)-pyrrolidinylmethoxy)pyridine, reference compound], the “Agonist/antagonist function (in words)” value in assay [1] and in [6] was “full agonists” in each case. The “Selectivity ratio α3β4/α4β2” value on α4β2 nAChR [2] (setting [14]) is on record as 1,357. On α4β2 nAChR [2] (setting [14]), the “Selectivity ratio α7/α4β2” value was 242. The Ki on α2β2 nAChR is 2 ± 0.3 nM; in [13] it was 5.4 ± 0.6 nM; on α7 nAChR [4] it was 340 ± 50 nM; on α3β2 nAChR, 12 ± 1 nM; on α4β4 nAChR, 150 ± 10 nM; at α2β4 nAChR [5] it was 370 ± 40 nM. This compound showed a Ki on α3β4 nAChR [7] of 1900 nM. In [3], the “Selectivity ratio α3β4/α4β2*FB” value is listed as 351.9. For the same compound, the EC50 (in general, the concentration at which the effect is half-maximal) in [6] is 750 nM; at rat α3β4 nAChRs it was 160000 ± 40000 nM. Besides, the “Selectivity ratio α3β4/α7” value at α3β4 nAChR [7] is recorded as 5.58. At rat α3β4 nAChRs (HEK293, read-out: Relative Emax), the Emax – broadly, the greatest response seen or fitted, relative to the assay's reference – turned out to be 37.5 ± 6%. In addition, at rat α3β4 nAChRs, the “Agonist activity (in words)” value is reported as “partial agonist with low potency”.
For `CN1CCCC1COc1ccccn1` (centres unmarked) [H-11ONM], the Ki on α4β2 nAChR [2] is more than 10000 nM; on α2β2 nAChR (setting [15]) it was more than 10000 nM; on α7 nAChR [4] (setting [16]), more than 10000 nM; at α3β2 nAChR (setting [17]), more than 10000 nM; at nAChRs, 60300 nM; on α4β4 nAChR (setting [18]), more than 10000 nM. Further, the Ki at α2β4 nAChR [5] (setting [19]) and at α3β4 nAChR [7] (setting [20]) was more than 10000 nM in each case.
